This experiment concerns CT-26 murine colon cancer tumor model. The experiment is described as follows: Anti-tumor effect in CT-26 murine colon cancer tumor model in combination with radiation therapy. The format is in vivo, mouse. Particulars: 150 mg/kg intragastric once daily in combination with radiotherapy (3Gry, once on day 1); day 23; tumor weight. On the procedure:
In this assay, the anti-tumor effects of the control compound and the compounds prepared in Examples 1 to 43, in combination with radiation therapy, were tested in a CT-26 murine colon cancer tumor model.
After one week of adaptive feeding of mice, CT-26 cells in a log phase were resuspended in PBS, 5×10^5 CT-26 cells were inoculated subcutaneously at the right flank at 100 μL per mouse, and tumor growth was observed regularly. When the tumor grew to an average volume of 60 to 80 mm^3, the mice carrying the tumor were randomly divided into 5 groups based on the tumor volume size, each group containing 10 mice of 10. These group were a group of Control compound (150 mg/kg) in combination with radiotherapy (3Gry), a group of Compound I-2 (150 mg/kg) in combination with radiotherapy, a group of Compound I-5 (150 mg/kg) in combination with radiotherapy, a group of radiotherapy (3Gry) alone, and a group of vehicle control. The mice were intragastrically administered with the corresponding compound once daily, for 23 days in total; radiation therapy was performed for one-time on the first day of the administration. Tumor volumes and mouse body weights were measured twice a week, and tumor weights were weighed at the end of the experiment. Efficacy evaluations were performed based on relative tumor inhibition (TGI), safety evaluations were performed based on changes in animal body weight and death. Tumor volume and relative tumor inhibition were calculated as follows:
Tumor volume (TV)=½×a×b^2, where a and b are the length and width of the tumor measurement, respectively.
Relative tumor inhibition rate TGI (%)=(TWc−TWt/TWc)×100%, where TWc is the mean tumor weight of the vehicle control group and TW is the mean tumor weight of the treatment group.

Turning to `C[C@H](NC(=O)c1c(C(F)F)nn(C)c1Oc1cccc(C(C)(F)F)c1)c1ccc(C(=O)O)cc1` [Compound I-5, (S)-4-(1-(5-(3-(1,1-difluoroethyl)phenoxy)-3-(difluoromethyl)-1-methyl-1H-pyrazole-4-carboxamido)ethyl)benzoic Acid], the “relative tumor inhibition rate TGI (%)” value is listed as 79%.

(Values after patent publication US12643889B2, “Synthesis of novel EP4 antagonist and use in cancer and inflammation” (Wuhan Humanwell Innovative Drug Research And Development …, priority 2020, dated 2026).)
